Source: patent US20230036854A1, “HETEROCYCLIC SPIRO-COMPOUNDS AS AM2 RECEPTOR INHIBITORS” (THE UNIVERSITY OF SHEFFIELD, priority 2018, published 2023)

Biological target: T1, AM2 receptor (1321N1 cells transfected with CALCRL+RAMP3) (Homo sapiens, UniProt O60896+Q16602)
T1 construct: host or cells: 1321N1 cells
Test: AM2 receptor inhibition, LANCE cAMP agonist-antagonist competition assay
Type: cell-based
Settings: inhibition of AM induced cAMP activation, read-out: AM2 D2 protocol: pIC50 (converted)
Method in brief: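 1321N1 cells co-expressing CALCRL and RAMP3 (2500/well) were preincubated with compound for 30 min at room temperature, then stimulated with adrenomedullin at its EC50 dose for 15 min in HBSS/HEPES/BSA buffer, pH 7.4. cAMP was measured by LANCE TR-FRET and normalised to forskolin (100%) and vehicle (0%) controls.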

T1 sequence (Q16602 23-461): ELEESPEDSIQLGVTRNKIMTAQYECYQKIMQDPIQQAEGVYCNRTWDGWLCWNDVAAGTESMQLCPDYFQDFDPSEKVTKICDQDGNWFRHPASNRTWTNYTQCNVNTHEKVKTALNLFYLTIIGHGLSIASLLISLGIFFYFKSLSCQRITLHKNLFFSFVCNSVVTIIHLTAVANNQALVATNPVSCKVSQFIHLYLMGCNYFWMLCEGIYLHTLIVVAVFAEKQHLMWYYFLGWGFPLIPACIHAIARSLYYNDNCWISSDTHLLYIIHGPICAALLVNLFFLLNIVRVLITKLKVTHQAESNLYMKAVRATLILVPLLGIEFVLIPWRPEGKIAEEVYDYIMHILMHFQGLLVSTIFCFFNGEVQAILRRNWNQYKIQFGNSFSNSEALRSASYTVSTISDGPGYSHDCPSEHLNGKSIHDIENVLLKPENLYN
T1 sequence (O60896 24-148): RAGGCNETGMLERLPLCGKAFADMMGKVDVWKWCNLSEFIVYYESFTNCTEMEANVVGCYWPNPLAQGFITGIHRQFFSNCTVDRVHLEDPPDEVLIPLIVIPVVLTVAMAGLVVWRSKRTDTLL

| Compound | IC50 [nM] |
| --- | --- |
| CCC1(C(=O)N(CC(=O)Nc2ccc3c(c2)C[C@@]2(C3)C(=O)Nc3ncccc32)Cc2ccccc2CNC)CCN(C(=O)N2CCC2)CC1 [Example 106, (R)-1-(Azetidine-1-carbonyl)-4-ethyl-N-(2-((methylamino)methyl)benzyl)-N-(2-oxo-2-((2′-oxo-1,1′,2′,3-tetrahydrospiro[indene-2,3′-pyrrolo[2,3-b]pyridin]-5-yl)amino)ethyl)piperidine-4-carboxamide] | 11.7 |
| CCC1(C(=O)N(CC(=O)Nc2ccc3c(c2)C[C@@]2(C3)C(=O)Nc3ncccc32)Cc2ccccc2CNC)CCN(C(=O)N2CCC(F)(F)CC2)CC1 [Example 107, (R)-1-(4,4-Difluoropiperidine-1-carbonyl)-4-ethyl-N-(2-((methylamino)methyl)benzyl)-N-(2-oxo-2-((2′-oxo-1,1′,2′,3-tetrahydrospiro[indene-2,3′-pyrrolo[2,3-b]pyridin]-5-yl)amino)ethyl)piperidine-4-carboxamide] | 57.5 |
| CCC1(C(=O)N(CC(=O)Nc2ccc3c(c2)C[C@@]2(C3)C(=O)Nc3ncccc32)Cc2ccccc2CNC)CCN(C(=O)N2CCC(F)(F)C2)CC1 [Example 108, (R)-1-(3,3-Difluoropyrrolidine-1-carbonyl)-4-ethyl-N-(2-((methylamino)methyl)benzyl)-N-(2-oxo-2-((2′-oxo-1,1′,2′,3-tetrahydrospiro[indene-2,3′-pyrrolo[2,3-b]pyridin]-5-yl)amino)ethyl)piperidine-4-carboxamide] | 24 |
| CCC1(C(=O)N(CC(=O)Nc2ccc3c(c2)C[C@@]2(C3)C(=O)Nc3ncccc32)Cc2ccccc2CNC)CCN(C(=O)OC(C)C)CC1 [Example 114, (R)-Isopropyl 4-ethyl-4-((2-((methylamino)methyl)benzyl)(2-oxo-2-((2′-oxo-1,1′,2′,3-tetrahydrospiro[indene-2,3′-pyrrolo[2,3-b]pyridin]-5-yl)amino)ethyl)carbamoyl)piperidine-1-carboxylate] | 69.2 |
| CCC1(C(=O)N(CC(=O)Nc2ccc3c(c2)C[C@@]2(C3)C(=O)Nc3ncccc32)Cc2ccccc2CNC)CCN(C(=O)OC)CC1 [Example 116, (R)-Methyl 4-ethyl-4-((2-((methylamino)methyl)benzyl)(2-oxo-2-((2′-oxo-1,1′,2′,3-tetrahydrospiro[indene-2,3′-pyrrolo[2,3-b]pyridin]-5-yl)amino)ethyl)carbamoyl)piperidine-1-carboxylate] | 20 |
| CCC1(C(=O)N(CC(=O)Nc2ccc3c(c2)C[C@@]2(C3)C(=O)Nc3ncccc32)Cc2ccccc2CNC)CCN(S(=O)(=O)NC)CC1 [Example 117, (R)-4-Ethyl-N-(2-((methylamino)methyl)benzyl)-1-(N-methylsulfamoyl)-N-(2-oxo-2-((2′-oxo-1,1′,2′,3-tetrahydrospiro[indene-2,3′-pyrrolo[2,3-b]pyridin]-5-yl)amino)ethyl)piperidine-4-carboxamide] | 4.57 |
| CCC1(C(=O)N(CC(=O)Nc2ccc3c(c2)C[C@@]2(C3)C(=O)Nc3ncccc32)Cc2ccccc2CNC)CCN(S(=O)(=O)N(C)C)CC1 [Example 118, (R)-1-(N,N-Dimethylsulfamoyl)-4-ethyl-N-(2-((methylamino)methyl)benzyl)-N-(2-oxo-2-((2′-oxo-1,1′,2′,3-tetrahydrospiro[indene-2,3′-pyrrolo[2,3-b]pyridin]-5-yl)amino)ethyl)piperidine-4-carboxamide] | 34.7 |
| CNCc1ccccc1CN(CC(=O)Nc1ccc2c(c1)C[C@@]1(C2)C(=O)Nc2ncccc21)C(=O)C1(CC(F)(F)F)CCN(C(C)=O)CC1 [Example 120, (R)-1-Acetyl-N-(2-((methylamino)methyl)benzyl)-N-(2-oxo-2-((2′-oxo-1,1′,2′,3-tetrahydrospiro[indene-2,3′-pyrrolo[2,3-b]pyridin]-5-yl)amino)ethyl)-4-(2,2,2-trifluoroethyl)piperidine-4-carboxamide] | 22.9 |
| CNCc1ccccc1CN(CC(=O)Nc1ccc2c(c1)C[C@@]1(C2)C(=O)Nc2ncccc21)C(=O)C1(CC2CC2)CCN(C(C)=O)CC1 [Example 122, (R)-1-Acetyl-4-(cyclopropylmethyl)-N-(2-((methylamino)methyl)benzyl)-N-(2-oxo-2-((2′-oxo-1,1′,2′,3-tetrahydrospiro[indene-2,3′-pyrrolo[2,3-b]pyridin]-5-yl)amino)ethyl)piperidine-4-carboxamide] | 8.32 |
| CNCc1ccccc1CN(CC(=O)Nc1ccc2c(c1)C[C@@]1(C2)C(=O)Nc2ncccc21)C(=O)C1(C(C)C)CCN(C(C)=O)CC1 [Example 123, (R)-1-Acetyl-4-isopropyl-N-(2-((methylamino)methyl)benzyl)-N-(2-oxo-2-((2′-oxo-1,1′,2′,3-tetrahydrospiro[indene-2,3′-pyrrolo[2,3-b]pyridin]-5-yl)amino)ethyl)piperidine-4-carboxamide] | 214 |
| CNCc1ccccc1CN(CC(=O)Nc1ccc2c(c1)C[C@@]1(C2)C(=O)Nc2ncccc21)C(=O)C1(CC(C)C)CCN(C(C)=O)CC1 [Example 125] | 21.4 |
| CNCc1ccccc1CN(CC(=O)Nc1ccc2c(c1)C[C@@]1(C2)C(=O)Nc2ncccc21)C(=O)C1(OC)CCN(C(C)=O)CC1 [Example 127, 1-Acetyl-4-methoxy-N-[[2-(methylaminomethyl)phenyl]methyl]-N-[2-oxo-2-[[(3R)-2-oxospiro[1H-pyrrolo[2,3-b]pyridine-3,2′-indane]-5′-yl]amino]ethyl]piperidine-4-carboxamide] | 24.5 |
| CNCc1ccccc1CN(CC(=O)Nc1cc2c(cc1C)CC1(C2)C(=O)Nc2ncccc21)C(=O)C1(C)CCNCC1 (stereo not drawn) [Example 128, 4-Methyl-N-(2-((5-methyl-2′-oxo-1,1′,2′,3-tetrahydrospiro[indene-2,3′-pyrrolo[2,3-b]pyridin]-6-yl)amino)-2-oxoethyl)-N-(2-((methylamino)methyl)benzyl)piperidine-4-carboxamide] | 87.1 |

More lines, now with the values ahead:

| IC50 [nM] | Compound |
| --- | --- |
| 7940 | CCC1(C(=O)N(CC(=O)Nc2ccc3c(c2)C[C@@]2(C3)C(=O)Nc3ncccc32)Cc2ccccc2CNC)CCN(C(=O)N2CC(F)(F)C2)CC1 [Example 109, (R)-1-(3,3-Difluoroazetidine-1-carbonyl)-4-ethyl-N-(2-((methylamino)methyl)benzyl)-N-(2-oxo-2-((2′-oxo-1,1′,2′,3-tetrahydrospiro[indene-2,3′-pyrrolo[2,3-b]pyridin]-5-yl)amino)ethyl)piperidine-4-carboxamide] |
| 93.3 | CCC1(C(=O)N(CC(=O)Nc2ccc3c(c2)C[C@@]2(C3)C(=O)Nc3ncccc32)Cc2ccccc2CNC)CCN(C(=O)N2CCC(C(F)(F)F)CC2)CC1 [Example 110, (R)-4-Ethyl-N-(2-((methylamino)methyl)benzyl)-N-(2-oxo-2-((2′-oxo-1,1′,2′,3-tetrahydrospiro[indene-2,3′-pyrrolo[2,3-b]pyridin]-5-yl)amino)ethyl)-1-(4-(trifluoromethyl)piperidine-1-carbonyl)piperidine-4-carboxamide] |
| 15.5 | CCC1(C(=O)N(CC(=O)Nc2ccc3c(c2)C[C@@]2(C3)C(=O)Nc3ncccc32)Cc2ccccc2CNC)CCN(C(=O)N2CC(F)C2)CC1 [Example 111, (R)-4-Ethyl-1-(3-fluoroazetidine-1-carbonyl)-N-(2-((methylamino)methyl)benzyl)-N-(2-oxo-2-((2′-oxo-1,1′,2′,3-tetrahydrospiro[indene-2,3′-pyrrolo[2,3-b]pyridin]-5-yl)amino)ethyl)piperidine-4-carboxamide] |
| 23.4 | CCC1(C(=O)N(CC(=O)Nc2ccc3c(c2)C[C@@]2(C3)C(=O)Nc3ncccc32)Cc2ccccc2CNC)CCN(C(=O)N2CC(C(F)(F)F)C2)CC1 [Example 112, (R)-4-Ethyl-N-(2-((methylamino)methyl)benzyl)-N-(2-oxo-2-((2′-oxo-1,1′,2′,3-tetrahydrospiro[indene-2,3′-pyrrolo[2,3-b]pyridin]-5-yl)amino)ethyl)-1-(3-(trifluoromethyl)azetidine-1-carbonyl)piperidine-4-carboxamide] |
| 4.27 | CCC1(C(=O)N(CC(=O)Nc2ccc3c(c2)C[C@@]2(C3)C(=O)Nc3ncccc32)Cc2ccccc2CNC)CCN(C(=O)NCC(F)(F)F)CC1 [Example 113, (R)-4-Ethyl-N4-(2-((methylamino)methyl)benzyl)-N4-(2-oxo-2-((2′-oxo-1,1′,2′,3-tetrahydrospiro[indene-2,3′-pyrrolo[2,3-b]pyridin]-5-yl)amino)ethyl)-N1-(2,2,2-trifluoroethyl)piperidine-1,4-dicarboxamide] |
| 24.5 | CCOC(=O)N1CCC(CC)(C(=O)N(CC(=O)Nc2ccc3c(c2)C[C@@]2(C3)C(=O)Nc3ncccc32)Cc2ccccc2CNC)CC1 [Example 115, (R)-Ethyl 4-ethyl-4-((2-((methylamino)methyl)benzyl)(2-oxo-2-((2′-oxo-1,1′,2′,3-tetrahydrospiro[indene-2,3′-pyrrolo[2,3-b]pyridin]-5-yl)amino)ethyl)carbamoyl)piperidine-1-carboxylate] |
| 10.5 | CNCc1ccccc1CN(CC(=O)Nc1ccc2c(c1)C[C@@]1(C2)C(=O)Nc2ncccc21)C(=O)C1(CC(F)(F)F)CCN(C(=O)N(C)C)CC1 [Example 121, (R)—N1,N1-Dimethyl-N4-(2-((methylamino)methyl)benzyl)-N4-(2-oxo-2-((2′-oxo-1,1′,2′,3-tetrahydrospiro[indene-2,3′-pyrrolo[2,3-b]pyridin]-5-yl)amino)ethyl)-4-(2,2,2-trifluoroethyl)piperidine-1,4-dicarboxamide] |
| 174 | CNCc1ccccc1CN(CC(=O)Nc1ccc2c(c1)C[C@@]1(C2)C(=O)Nc2ncccc21)C(=O)C1(COC)CCN(C(C)=O)CC1 [Example 126, (R)-1-Acetyl-4-(methoxymethyl)-N-(2-((methylamino)methyl)benzyl)-N-(2-oxo-2-((2′-oxo-1,1′,2′,3-tetrahydrospiro[indene-2,3′-pyrrolo[2,3-b]pyridin]-5-yl)amino)ethyl)piperidine-4-carboxamide] |
